#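 Where inhibition never reached the appropriate level, the endpoint shown equals the highest concentration tested. Otherwise, values were interpolated linearly from a five-concentration, 48-hour dose response in 96-well plates. GI50 marks 50% less growth. Definition used: TGI = concentration required for complete inhibition of growth.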
# Key:
# Experiment in all cases: NCI-60 cell line screen, 48 h
# M14 melanoma = tested on: M14 melanoma
# SF-268 CNS = tested on: SF-268 CNS
# SNB-75 CNS = tested on: SNB-75 CNS
# A498 renal = tested on: A498 renal
# K-562 leukemia = tested on: K-562 leukemia
# UACC-62 melanoma = tested on: UACC-62 melanoma
# OVCAR-8 ovarian = tested on: OVCAR-8 ovarian
# SW-620 colon = tested on: SW-620 colon
# SR leukemia = tested on: SR leukemia
# MOLT-4 leukemia = tested on: MOLT-4 leukemia
# OVCAR-3 ovarian = tested on: OVCAR-3 ovarian
SMILES,TGI (M14 melanoma),TGI (SF-268 CNS),TGI (SNB-75 CNS),TGI (A498 renal),TGI (K-562 leukemia),TGI (UACC-62 melanoma),TGI (OVCAR-8 ovarian),TGI (SW-620 colon),TGI (SR leukemia),TGI (MOLT-4 leukemia),TGI (OVCAR-3 ovarian),GI50 (SF-268 CNS),GI50 (MOLT-4 leukemia),GI50 (SNB-75 CNS),GI50 (OVCAR-3 ovarian),GI50 (A498 renal),GI50 (K-562 leukemia),GI50 (UACC-62 melanoma),GI50 (OVCAR-8 ovarian),GI50 (SW-620 colon)
c1ccc2nc(CCC3CCCCN3)ccc2c1 (stereo not drawn),> 100 µM,> 100 µM,> 100 µM,> 100 µM,> 100 µM,> 100 µM,> 100 µM,> 100 µM,> 100 µM,–,–,–,–,–,–,–,–,–,–,–
O=[N+]([O-])c1ccc(Cl)cc1N/N=C/c1cccc2cccnc12,> 100 µM,> 100 µM,> 100 µM,–,> 100 µM,> 100 µM,> 100 µM,> 100 µM,38 µM,> 100 µM,> 100 µM,–,–,–,–,–,–,–,–,–
C#CC(O)/C=C/C(O)CCCC(O)CC#CC(O)C#CC(O)CCCC(O)/C=C/CCCC(=O)CCCCCCCCCCCCCCCC(O)C(O)C#CC(=O)O (stereo not drawn),> 50 µM,> 50 µM,> 50 µM,–,> 50 µM,> 50 µM,> 50 µM,–,> 50 µM,> 50 µM,–,–,–,–,–,–,–,–,–,–
c1ccc(N=C2SC3=NCCN3C2=Nc2ccccc2)cc1,37.8 µM,–,43.3 µM,36.4 µM,> 100 µM,22.7 µM,> 100 µM,–,> 100 µM,77 µM,36 µM,–,–,–,–,–,–,–,–,–
CC1C(=O)O[C@H]2C1CC[C@@]1(C)[C@H](O)CC[C@@]13C[C@]2(O)OO3 (stereo partly drawn),> 100 µM,> 100 µM,–,> 100 µM,> 100 µM,> 100 µM,> 100 µM,> 100 µM,> 100 µM,> 100 µM,> 100 µM,–,–,–,–,–,–,–,–,–
CCOP(=O)(OCC)C1=NC=CC=CC1n1c(-c2ccccc2)nn(CC)c1=O (stereo not drawn),–,> 100 µM,–,–,–,> 100 µM,> 100 µM,> 100 µM,> 100 µM,> 100 µM,> 100 µM,–,–,–,–,–,–,–,–,–
CC(NC(C#N)CC12CC3CC(CC(C3)C1)C2)c1ccccc1 (stereo not drawn),> 100 µM,> 100 µM,–,> 100 µM,> 100 µM,> 100 µM,> 100 µM,> 100 µM,> 100 µM,> 100 µM,71.9 µM,–,–,–,–,–,–,–,–,–
CSc1nc2c(=O)n(-c3ccccc3)c(=S)n(-c3ccccc3)c2s1,> 100 µM,> 100 µM,91.7 µM,–,> 100 µM,–,> 100 µM,> 100 µM,> 100 µM,> 100 µM,> 100 µM,–,–,–,–,–,–,–,–,–
CC1(CC2=C(C(=O)NCCO[Si](C)(C)C(C)(C)C)C3(OCCO3)C2=O)OCCO1,> 100 µM,> 100 µM,> 100 µM,> 100 µM,–,> 100 µM,> 100 µM,> 100 µM,–,> 100 µM,> 100 µM,–,–,–,–,–,–,–,–,–
CC(Cc1ccccc1)NC1=NCCO1 (stereo not drawn),–,–,> 100 µM,85.5 µM,–,> 100 µM,> 100 µM,> 100 µM,63.5 µM,77.9 µM,–,–,–,–,–,–,–,–,–,–
COC(=O)c1ccccc1C1CN=NC12Cc1cccc(C)c1C2=O (stereo not drawn),–,> 100 µM,> 100 µM,> 100 µM,> 100 µM,> 100 µM,> 100 µM,> 100 µM,> 100 µM,> 100 µM,82.1 µM,–,–,–,–,–,–,–,–,–
NC(=O)CC(N=C1C(=O)OC(C(O)CO)C1=NC(CC(N)=O)C(=O)O)C(=O)O (stereo not drawn),> 100 µM,> 100 µM,> 100 µM,> 100 µM,> 100 µM,> 100 µM,> 100 µM,> 100 µM,> 100 µM,> 100 µM,–,–,–,–,–,–,–,–,–,–
Oc1cccc(-c2cn3cc(C(F)(F)F)ccc3n2)c1,> 100 µM,> 100 µM,–,> 100 µM,> 100 µM,> 100 µM,> 100 µM,> 100 µM,> 100 µM,40.1 µM,86.7 µM,–,–,–,–,–,–,–,–,–
Nc1ccc(Oc2ccc(C34CC5CC6C3CC3CC4C(C5)C6(c4ccc(Oc5ccc(N)c(O)c5)cc4)C3)cc2)cc1O,8.71 µM,29.2 µM,–,20.4 µM,> 54.8 µM,26.3 µM,> 46.7 µM,> 54.8 µM,8.49 µM,12.9 µM,8.28 µM,–,–,–,–,–,–,–,–,–
Cc1nc(C(N)=S)sc1C(=O)C/C(=N/N)C(=O)Nc1ccc(Cl)cc1,> 100 µM,> 100 µM,> 100 µM,–,> 100 µM,> 100 µM,> 100 µM,> 100 µM,> 100 µM,> 100 µM,> 100 µM,–,–,–,–,–,–,–,–,–
CCc1nc2ccc(C(F)(F)F)cc2[nH]c1=O,> 100 µM,> 100 µM,> 100 µM,> 100 µM,> 100 µM,> 100 µM,> 100 µM,> 100 µM,–,> 100 µM,> 100 µM,–,–,–,–,–,–,–,–,–
C=C1C(=O)O[C@@H]2[C@H](O)[C@@H](C)[C@@H]3C=CC(=O)[C@@]3(C)[C@H](OC(=O)C=C(C)C)[C@H]12,–,3.59 µM,7.86 µM,4.65 µM,0.518 µM,1.87 µM,8.53 µM,1.18 µM,–,0.725 µM,2.15 µM,–,–,–,–,–,–,–,–,–
Oc1ccc(C#CCOc2ccccc2)cc1CNCCN(Cc1ccccn1)Cc1ccccn1,–,4.29 µM,4.13 µM,2.44 µM,13.8 µM,3.59 µM,6.55 µM,4.89 µM,–,5.56 µM,3.04 µM,1.37 µM,2 µM,1.24 µM,1.47 µM,1.19 µM,2.49 µM,1.68 µM,1 µM,1.86 µM
O=[N+]([O-])c1ccc2c(c1)c(S(=O)(=O)O)cc1nonc12,> 100 µM,> 100 µM,–,> 100 µM,> 100 µM,> 100 µM,> 100 µM,> 100 µM,> 100 µM,> 100 µM,> 100 µM,–,–,–,–,–,–,–,–,–
O=C(OCc1ccccc1)N1CCN(C(=O)OCc2ccccc2)CCN(C(=O)OCc2ccccc2)CCN(C(=O)OCc2ccccc2)CCN(C(=O)OCc2ccccc2)CC1,> 100 µM,–,96.6 µM,> 100 µM,–,> 100 µM,> 100 µM,> 100 µM,–,> 100 µM,> 100 µM,–,–,–,–,–,–,–,–,–

# From PubChem BioAssay (NCI)
